The subject of the first test is hypoxia-inducible endogenous VEGF expression. Briefly: Assay to evaluate effect on hypoxia-inducible endogenous VEGF expression (VEGF ELISA, HeLa cells). As to conditions: HeLa cells cultured 24-48 hours under hypoxic conditions (1% O2, 5% CO2); VEGF in conditioned media by ELISA; read-out: ELISA EC50 (effective concentration required to lower the amount of VEGF translation by 50%). Type of test: cell-based. As to the method: Assay to Evaluate Effect on Hypoxia-Inducible Endogenous VEGF Expression
The ability of the compounds of the invention to modulate hypoxia-inducible endogenous VEGF expression is analyzed as follows. VEGF protein levels are monitored by an ELISA assay (R&D Systems). Briefly, HeLa cells are cultured for 24-48 hours under hypoxic conditions (1% O2, 5% CO2, balanced with nitrogen) in the presence or absence of a compound of the invention. The conditioned media is then assayed by ELISA, and the concentration of VEGF is calculated from the standard ELISA curve of each assay.
A dose-response analysis is performed using the ELISA assay and conditions described above. A series of, e.g., seven different concentrations are analyzed. In parallel, a dose-response cytotoxicity assay is performed using Cell Titer Glo (Promega) under the same conditions as the ELISA to ensure that the inhibition of VEGF expression is not due to the cytotoxicity. Dose-response curves are plotted using percentage inhibition versus concentration of the compound, and EC50 and CC50 values are generated for each compound with the maximal inhibition set as 100% and the minimal inhibition as 0%.
The most preferred compounds of the invention are those with μM values of 3 or less.
A general note: In an ELISA, binding on a coated surface is turned into a signal by an enzyme label.
Consider `O=C(Oc1ccccc1Br)N1CCCC1` [Pyrrolidine-1-carboxylic acid 2-bromo-phenyl ester], for which the EC50 is > 30 µM.
Still for that read-out and setting: with `Cc1ccc2cc(OC(=O)N3CCC(C)CC3)ccc2n1` [4-Methyl-piperidine-1-carboxylic acid 2-methyl-quinolin-6-yl ester] the figure was > 30 µM.
As for `O=C(Oc1ccccc1Br)N1CCc2ccccc21` [2,3-Dihydro-indole-1-carboxylic acid 2-bromo-phenyl ester], the EC50 was > 30 µM.
Still for that read-out and setting: with `CC1CC(C)CN(C(=O)Oc2ccccc2Br)C1` (stereo not drawn) [3,5-Dimethyl-piperidine-1-carboxylic acid 2-bromo-phenyl ester] the figure was > 30 µM.
As for `CC1CCCC(C)N1C(=O)Oc1ccccc1Br` (stereo not drawn) [2,6-Dimethyl-piperidine-1-carboxylic acid 2-bromo-phenyl ester], the EC50 is > 30 µM.

The same test, now with this note: Homo sapiens, HeLa, read-out: ELISA EC50 (effective concentration required to lower the amount of VEGF translation by 50%).
Take `CC(=O)c1c(OC(=O)N2CCCN(C)CC2)ccc2ccccc12` [4-Methyl-[1,4]diazepane-1-carboxylic acid 1-acetyl-naphthalen-2-yl ester]: the EC50 was > 30 µM.
On the same count and under the same terms, with `CN(C)C(=O)Oc1ccc2ccccc2c1Br` [Dimethyl-carbamic acid 1-bromo-naphthalen-2-yl ester] the figure was 4 µM.
The same measure, in the same setting: to `Cc1ccc2cc(OC(=O)N3CCN(C)CC3)ccc2n1` [4-Methyl-piperazine-1-carboxylic acid 2-methyl-quinolin-6-yl ester] belongs > 30 µM; to `CN1CCCN(C(=O)Oc2ccccc2Br)CC1` [4-Methyl-[1,4]diazepane-1-carboxylic acid 2-bromo-phenyl ester], > 30 µM; to `Cc1ccc(OC(=O)N2CCc3ccccc32)c(Br)c1` [2,3-Dihydro-indole-1-carboxylic acid 2-bromo-4-methyl-phenyl ester], > 30 µM.
The same measure, in the same setting: with `CN1CCN(C(=O)Oc2cc3ccccc3cn2)CC1` [4-Methyl-piperazine-1-carboxylic acid isoquinolin-3-yl ester] the figure was > 30 µM; with `CC1CCCCN1C(=O)Oc1ccccc1Br` (stereo not drawn) [2-Methyl-piperidine-1-carboxylic acid 2-bromo-phenyl ester], > 30 µM.

Still in this test, the particulars now being: Homo sapiens; HeLa cells cultured 24-48 hours under hypoxic conditions (1% O2, 5% CO2); VEGF in conditioned media by ELISA; read-out: ELISA EC50 (effective concentration required to lower the amount of VEGF translation by 50%).
As for `O=C(Oc1cc2ccccc2cn1)N1CCc2ccccc2C1` [3,4-Dihydro-1H-isoquinoline-2-carboxylic acid isoquinolin-3-yl ester], the EC50 is > 30 µM.
On the same count and under the same terms, with `O=C(Oc1ccc2ccccc2c1Br)N1CCC(C(O)(c2ccccc2)c2ccccc2)CC1` [4-(Hydroxy-diphenyl-methyl)-piperidine-1-carboxylic acid 1-bromo-naphthalen-2-yl ester] the figure was 0.0202 µM; with `CCN(CC)C(=O)Oc1ccc2ccccc2c1Br` [Diethyl-carbamic acid 1-bromo-naphthalen-2-yl ester], 2 µM; with `O=C(NC1CCCCC1)Oc1ccccc1Br` [Cyclohexyl-carbamic acid 2-bromo-phenyl ester], > 30 µM.
Take `O=C(Oc1c(Cl)cc(Cl)cc1Cl)N1CCN(c2ccccc2)CC1` [4-Phenyl-piperazine-1-carboxylic acid 2,4,6-trichloro-phenyl ester]: the EC50 was 5.78 µM.
Still for that read-out and setting: to `CCC(NC(=O)Oc1ccc2ccccc2c1)(C(F)(F)F)C(F)(F)F` [(1,1-Bis-trifluoromethyl-propyl)-carbamic acid naphthalen-2-yl ester] belongs > 30 µM; to `CC1CCCCN1C(=O)Oc1cc(Cl)c(Cl)cc1Cl` (stereo not drawn) [2-Methyl-piperidine-1-carboxylic acid 2,4,5-trichloro-phenyl ester], 10.6 µM.
As to `CC1CCCCN1C(=O)Oc1c(Cl)cc(Cl)cc1Cl` (stereo not drawn) [2-Methyl-piperidine-1-carboxylic acid 2,4,6-trichloro-phenyl ester], the EC50 is > 30 µM.
With `O=C(Nc1ccc2ccccc2c1)N1CCC(Cc2ccccc2)CC1` [4-Benzyl-piperidine-1-carboxylic acid naphthalen-2-ylamide], the EC50 came out at 4.39 µM.
As for `O=C(Oc1ccc2cc(Br)ccc2c1)N1CCOCC1` [Morpholine-4-carboxylic acid 6-bromo-naphthalen-2-yl ester], the EC50 was > 10 µM.
The same measure, in the same setting: with `O=C(Oc1c(Cl)cc(Cl)cc1Cl)N1CCCc2ccccc21` [3,4-Dihydro-2H-quinoline-1-carboxylic acid 2,4,6-trichloro-phenyl ester] the figure was > 30 µM.
On the same count and under the same terms, to `O=C(Oc1ccc2ccccc2c1)N1CCCCC1` [Piperidine-1-carboxylic acid naphthalen-2-yl ester] belongs > 10 µM.
The same measure, in the same setting: with `O=C(Oc1ccc2ccccc2c1Br)N1CCC2(CC1)OCCO2` [1,4-Dioxa-8-aza-spiro[4.5]decane-8-carboxylic acid 1-bromo-naphthalen-2-yl ester] the figure was 1.51 µM.
Take `Cc1ccc2cc(OC(=O)N3CCC(Cc4ccccc4)CC3)ccc2n1` [4-Benzyl-piperidine-1-carboxylic acid 2-methyl-quinolin-6-yl ester]: the EC50 is > 30 µM.
For the compound `CS(=O)(=O)Nc1c(O)ccc2ccccc12` [N-(2-Hydroxy-naphthalen-1-yl)-methanesulfonamide], the EC50 is > 5 µM.
Still for that read-out and setting: with `CC(=O)c1c(OC(=O)N2CCC(Cc3ccccc3)CC2)ccc2ccccc12` [4-Benzyl-piperidine-1-carboxylic acid 1-acetyl-naphthalen-2-yl ester] the figure was 2.6 µM.
Same read-out and setting: to `O=C(Oc1ccccc1Br)N1CCc2cccnc21` [2,3-Dihydro-pyrrolo[2,3-b]pyridine-1-carboxylic acid 2-bromo-phenyl ester] belongs > 30 µM; to `Cc1ccc2cc(OC(=O)N3CCCCC3)ccc2n1` [Piperidine-1-carboxylic acid 2-methyl-quinolin-6-yl ester], > 30 µM; to `O=C(Oc1ccc2ccccc2c1Br)N1CCCCC1` [Piperidine-1-carboxylic acid 1-bromo-naphthalen-2-yl ester], 0.27 µM.
Still for that read-out and setting: to `O=C(Oc1c(Cl)cc(Cl)cc1Cl)N1CCC(Cc2ccccc2)CC1` [4-Benzyl-piperidine-1-carboxylic acid 2,4,6-trichloro-phenyl ester] belongs 3.72 µM; to `O=C(Oc1cc(Cl)c(Cl)cc1Cl)N1CCC(Cc2ccccc2)CC1` [4-Benzyl-piperidine-1-carboxylic acid 2,4,5-trichloro-phenyl ester], 7.09 µM; to `Cc1ccc2cc(OC(=O)N3CCCc4ccccc43)ccc2n1` [3,4-Dihydro-2H-quinoline-1-carboxylic acid 2-methyl-quinolin-6-yl ester], > 30 µM.
For the compound `CC1CCN(C(=O)Oc2cc3ccccc3cn2)CC1` [4-Methyl-piperidine-1-carboxylic acid isoquinolin-3-yl ester], the EC50 was > 30 µM.
Still for that read-out and setting: to `CC(=O)c1c(OC(=O)N2CCC(C)CC2)ccc2ccccc12` [4-Methyl-piperidine-1-carboxylic acid 1-acetyl-naphthalen-2-yl ester] belongs 1.85 µM; to `O=C(Oc1ccccc1Br)N1CCC(Cc2ccccc2)CC1` [4-Benzyl-piperidine-1-carboxylic acid 2-bromo-phenyl ester], > 30 µM.
`O=C(Oc1cc2ccccc2cn1)N1CCC(Cc2ccccc2)CC1` [4-Benzyl-piperidine-1-carboxylic acid isoquinolin-3-yl ester]: the EC50 was > 30 µM.
The same measure, in the same setting: to `O=C(Nc1ccc2ccccc2c1Br)N1CCC(Cc2ccccc2)CC1` [4-Benzyl-piperidine-1-carboxylic acid (1-bromo-naphthalen-2-yl)-amide] belongs > 10 µM.

Values taken from patent publication US8143257B2, “Substituted phenols as active agents inhibiting VEGF production” (PTC Therapeutics, Inc., priority 2004, dated 2012).
